Assays:
[1] = system: EDEN1 (clinical DENV1 isolate); assay: Ab-mediated infection of THP-1 cells with enhancing concentration of 4G2 Ab; type: cell-based; conditions: EDEN1, MOI 2, single experiment
Procedure: (§1) Cells were infected with DENV strains for 1 hour at 37° C. and washed once with culture media. […] The supernatants were subjected to standard plaque assay and the EC50 values were determined using the GraphPad Prism software.
(§2) NITD008, an adenosine analog inhibitor of DENV polymerase (Yin et al., 2009) was used as a positive control.

[2] = system: S221 (mouse-adapted DENV2 strain); assay: as above; type: cell-based; conditions: S221, MOI 2, single experiment
Procedure: as §1, §2

[3] = system: EDEN2 (clinical DENV2 isolate); assay: Antiviral effect in BHK-21 cells, plaque assay of supernatant 48 h pi; type: cell-based; conditions: Dengue virus, DENV2, BHK-21
Procedure: as §1, §2

[4] = system: EDEN1 (clinical DENV1 isolate); assay: as above; type: cell-based
Procedure: as §1, §2

[5] = system: S221 (mouse-adapted DENV2 strain); assay: as above; type: cell-based; conditions: Dengue virus, DENV2, BHK-21
Procedure: as §1, §2

DENV2 = assay: Survival of DENV2 infected mice in a lethal ADE model of viremia (FIG. 5B); type: in vivo
Procedure: Survival at day 12 was 1/8 (13%) at 10 mg/kg twice daily (BID), 5/8 (63%) at 25 mg/kg BID, 7/7 (100%) at 50 mg/kg BID, and 0/8 (0%) at 100 mg/kg once daily (QD).

EDEN1 = assay: Lethal ADE infection model in AG129 mice (4G2 Ab pre-injection); type: in vivo
Procedure: (§3) AG129 mice were inoculated i.v. with EDEN1 (7×10^7 pfu), EDEN2 (1×10^8 pfu) or S221 (2×10^4 pfu) for non-lethal infection. For the ADE infection (lethal), mice were pre-injected i.p. with 50 μg (for EDEN1 and EDEN2) or 10 μg (for S221) 4G2 Ab one day prior to infection. (A) Mouse survival rate was monitored by day 10 pi. (B) Blood samples were collected on days 1-8 pi and mixed serum from each group were subjected to real-time RT-PCR to obtain the average viral genome copy numbers. (C) Serum levels of TNFα and IL-6 were measured by ELISA assay. The numbers of mice per group are 6 (EDEN1) or 5 (EDEN2 and S221).
(§4) AG129 mice were pre-injected i.p. with 50 μg (for EDEN1 and EDEN2) or 10 μg (for S221) 4G2 Ab followed by next day inoculation i.v. with EDEN1 (7×10^7 pfu), EDEN2 (1×10^8 pfu) or S221 (2×10^4 pfu). […] (A) Mouse survival rate was monitored by day 10 pi. (B) Blood samples were collected on day 1-4 pi and mixed serum from each group were subjected to real-time RT PCR to obtain the average viral genome copy numbers (left panels). […] A P value less than 0.05 was considered significant (*P<0.05). The number of mice per group is 5.
as §4, with “with” for “with 50 μg (for EDEN1 and EDEN2) or 10 μg (for S221)”, “with EDEN1,” for “with EDEN1 (7×10^7 pfu),”, “EDEN2” for “EDEN2 (1×10^8 pfu)”, “S221 as described above.” for “S221 (2×10^4 pfu).”, “on days” for “on day”, “is 6.” for “is 5.”
(§5) AG129 mouse models of clinical DENV strains, EDEN1 and EDEN2, in addition to mouse-adapted S221 strain were developed. To increase infection level in mice, high virus titer of EDEN1 (7×10^7 pfu) and EDEN2 (1×10^8 pfu) were inoculated intravenously (iv) into AG129 mice.

S221 = assay: as above; type: in vivo
Procedure: as §3, §4
as §4, with “with” for “with 50 μg (for EDEN1 and EDEN2) or 10 μg (for S221)”, “with EDEN1,” for “with EDEN1 (7×10^7 pfu),”, “EDEN2” for “EDEN2 (1×10^8 pfu)”, “S221 as described above.” for “S221 (2×10^4 pfu).”, “on days” for “on day”, “is 6.” for “is 5.”
as §5

EDEN2 = assay: as above; type: in vivo
Procedure: as §3, §4
as §4, with “with” for “with 50 μg (for EDEN1 and EDEN2) or 10 μg (for S221)”, “with EDEN1,” for “with EDEN1 (7×10^7 pfu),”, “EDEN2” for “EDEN2 (1×10^8 pfu)”, “S221 as described above.” for “S221 (2×10^4 pfu).”, “on days” for “on day”, “is 6.” for “is 5.”
as §5

[6] = over the tolerated dose range; cited from earlier work
[7] = system: EDEN2 (clinical DENV2 isolate); assay: Antiviral effect in HuH-7 cells, plaque assay of supernatant 48 h pi; type: cell-based
Procedure: as §1, §2

[8] = system: EDEN1 (clinical DENV1 isolate); assay: as above; type: cell-based
Procedure: as §1, §2

[9] = system: S221 (mouse-adapted DENV2 strain); assay: as above; type: cell-based
Procedure: as §1, §2

[10] = human, cited from earlier work
EDEN1, EDEN2, S221 = assay: Antiviral effect in BHK-21 cells, all virus strains; type: cell-based, DENV; conditions: Dengue virus
Procedure: as §1, §2

[11] = system: EDEN2 (clinical DENV2 isolate); assay: Antiviral effect in Vero cells, plaque assay of supernatant 48 h pi; type: cell-based; conditions: Dengue virus, DENV2, Vero
Procedure: as §1, §2

[12] = system: EDEN1 (clinical DENV1 isolate); assay: as above; type: cell-based
Procedure: as §1, §2

[13] = system: S221 (mouse-adapted DENV2 strain); assay: as above; type: cell-based; conditions: S221, MOI 0.3
Procedure: as §1, §2

With CCCC(=O)O[C@H]1CN2CC[C@H](O)[C@@H]2[C@@H](O)[C@@H]1O [celgosivir] the EC50 ([1]; THP-1, THP-1 with 4G2 Ab) was 3.2 µM, the EC50 ([1]; THP-1 with 4G2 Ab) was 3.24 µM and the EC50 ([2]; Dengue virus, DENV2, THP-1, THP-1 with 4G2 Ab) was 2.1 µM. The EC50 ([2]; THP-1 with 4G2 Ab) was 2.14 µM, the EC50 [3] was 0.061 µM and the EC50 ([4]; BHK-21, BHK-21, EDEN1, MOI 0.01) was 0.066 µM. The EC50 ([4]; BHK-21, BHK-21, EDEN1, MOI 0.3) was 0.105 µM, the EC50 [5] was 0.119 µM and the “Survival at day 12” value (DENV2; 10 mg/kg twice daily (BID)) was 13%. For the same compound, the “Survival at day 12” value (DENV2; 25 mg/kg BID) was 63%, the “Survival at day 12” value (DENV2; 50 mg/kg BID) was 100% and the “Survival at day 12” value (DENV2; 100 mg/kg once daily (QD)) was 0%. For the same compound, the “protection from death (survival)” value (EDEN1; EDEN1, 10 mg/kg BID from time of infection) was “could not protect mice from death”, the “viremia reduction versus VC on day 3” value (EDEN1; EDEN1, lethal ADE model, 10 mg/kg BID from day 0) was 1.8 fold and the “lower viremia level than vehicle control on day 3 pi” value (EDEN1; EDEN1, lethal ADE model, 50 mg/kg BID from day 0) was 4.3 fold. The “protection from death (survival)” value (S221; S221, 10 mg/kg BID from time of infection) was “could not protect mice from death”, the “protection from lethal infection (survival)” value (S221; S221, 50 mg/kg BID orally from time of infection) was “completely protected mice from lethal infection” and the “viremia reduction versus VC on day 3” value (S221; S221, lethal ADE model, 10 mg/kg BID from day 0) was 1.4 fold. The “lower viremia level than vehicle control on day 3 pi” value (S221; S221, lethal ADE model, 50 mg/kg BID from day 0) was 2.4 fold, the “protection from death (survival)” value (EDEN2; EDEN2, 10 mg/kg BID from time of infection) was 100% and the “viremia reduction versus VC on day 3” value (EDEN2; EDEN2, lethal ADE model, 10 mg/kg BID from day 0) was 3.7 fold. For the same compound, the “lower viremia level than vehicle control on day 3 pi” value (EDEN2; EDEN2, lethal ADE model, 50 mg/kg BID from day 0) was 16.5 fold, the pharmacokinetics dose dependence [6] was “linear with dose” and the EC50 ([7]; Dengue virus, DENV2, Huh-7, HuH-7, EDEN2, MOI 0.3) was 0.82 µM. For the same compound, the EC50 ([7]; HuH-7, EDEN2, MOI 0.3) was 0.824 µM, the EC50 ([8]; HuH-7, EDEN1, MOI 0.01) was 5.96 µM and the EC50 ([8]; HuH-7, EDEN1, MOI 0.3) was 17.4 µM. The EC50 ([8]; Huh-7, HuH-7, EDEN1, MOI 0.01) was 6 µM, the EC50 ([8]; Huh-7, HuH-7, EDEN1, MOI 0.3) was 17.4 µM and the EC50 ([9]; Dengue virus, DENV2, Huh-7, HuH-7, S221, MOI 0.3) was 5.1 µM. For the same compound, the EC50 ([9]; HuH-7, S221, MOI 0.3) was 5.09 µM, the adverse event profile ([10]; CELADEN study regimen) was “higher incidence of GI effects, but not increased severity” and the “maximum daily dose, total dose” value ([10]; in theory) was at most 600 mg. The “maximum dose as a single dose” value ([10]; in theory) was at most 400 mg, the EC50 (EDEN1, EDEN2, S221) was under 0.2 µM and the EC50 ([11]; EDEN2, MOI 0.3) was 2.43 µM. It also gave an EC50 ([11]; EDEN2, MOI 0.3 (text)) of 2.4 µM, an EC50 ([12]; EDEN1, MOI 0.01) of 13.8 µM and an EC50 ([12]; EDEN1, MOI 0.3) of 51 µM. The EC50 ([13]; Dengue virus, DENV2, Vero) was 8.3 µM and the EC50 [13] was 8.34 µM.

— patent US11000516B2 (priority 2015, dated 2021)
